Source: publication PMC7802075 (ACS Infectious Diseases, 2020)
Where a name gives a salt, the structure may show the parent alone. Read-outs that look alike come from different tables or passages of the source.

Target: T1, LmjIPCS (inositol phosphorylceramide synthase from L. major) (Leishmania major, UniProt E9AFX2)
T1 sequence (E9AFX2 1-338): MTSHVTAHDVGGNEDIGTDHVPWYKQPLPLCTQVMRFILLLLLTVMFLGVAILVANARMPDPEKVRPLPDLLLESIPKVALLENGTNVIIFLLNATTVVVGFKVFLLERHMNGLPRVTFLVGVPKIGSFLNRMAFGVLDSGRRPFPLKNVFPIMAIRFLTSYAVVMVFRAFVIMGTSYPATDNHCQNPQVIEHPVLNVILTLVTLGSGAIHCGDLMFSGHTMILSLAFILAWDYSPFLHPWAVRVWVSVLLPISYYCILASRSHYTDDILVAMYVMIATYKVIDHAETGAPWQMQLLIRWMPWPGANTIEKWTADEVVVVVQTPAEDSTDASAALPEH
Assay: biochemical
Type: biochemical
Design: inhibition: dose or concentration left out as unconfirmed
Settings: for inhibition at 20000 µM: read-out: 20mM inhibition LmjIPCS; for inhibition: read-out: inhibition LmjIPCS

[1] = NINDS set screen, single concentration 20mM as printed
[2] = NINDS set screen, single concentration printed as 20mM
[3] = screening of NINDS set, sheet Screen 1

O=S(=O)(O)CCS [MESNA]
inhibition at 20000 µM: -0.783%

O=C(O)CN(CCN(CC(=O)O)CC(=O)O)CC(=O)O.[Na+].[Na+].[Na+] [TRISODIUM ETHYLENEDIAMINE TETRACETATE]
20mM inhibition LmjIPCS [1]: -4.23%

COc1ccc2c(c1OC)C(=O)OC2[C@H]1c2cc3c(cc2CCN1C)OCO3 (stereo in doubt) [1R,9S-HYDRASTINE]
inhibition at 20000 µM: 10%

CCN(CC)CCNC(=O)c1cc(S(C)(=O)=O)ccc1OC [TIAPRIDE]
inhibition (NINDS set screen): -5%

COc1ccc(C(=O)c2ccccc2)c(O)c1 [OXYBENZONE]
20mM inhibition LmjIPCS [2]: 34%

CO/N=C(\C(=O)N[C@@H]1C(=O)N2C(C(=O)OCOC(=O)C(C)(C)C)=C(/C=C\c3scnc3C)CS[C@H]12)c1csc(N)n1 [CEFDITORIN PIVOXIL]
20mM inhibition LmjIPCS: 10%

Nc1ccc(C(=O)NCC(=O)O)cc1 [AMINOHIPPURIC ACID]
inhibition [3]: 7%

COc1ccc2cc3[n+](cc2c1OC)CCc1cc2c(cc1-3)OCO2 [BERBERINE]
inhibition: 6%

Cc1onc(-c2ccccc2)c1-c1ccc(S(N)(=O)=O)cc1 [VALDECOXIB]
inhibition [3]: 3.24%

CC1(C)O[C@@H]2C[C@H]3[C@@H]4CCC5=CC(=O)CC[C@]5(C)[C@@]4(F)[C@@H](O)C[C@]3(C)[C@]2(C(=O)CCl)O1 [HALCINONIDE]
inhibition at 20000 µM: 20%

O=C(O)C1=CCCNC1 [GUVACINE]
inhibition (NINDS set screen): 14%

COC(=O)C(C)c1ccc(C(=O)c2cccs2)cc1 (stereo not drawn) [SUPROFEN METHYL ESTER]
inhibition (NINDS set screen): -10%

CCCc1cc(C(N)=S)ccn1 [PROTHIONAMIDE]
inhibition [3]: 9%

C#CCCCCCCCCCCCC(O)CC(O)CO (stereo not drawn) [AVOCADYNE]
20mM inhibition LmjIPCS [2]: 65%

CN(C)C(=O)Oc1ccc[n+](C)c1 [PYRIDOSTIGMINE BROMIDE]
inhibition at 20000 µM: -5.55%

CCN(CC)C(C)CN1c2ccccc2Sc2ccccc21 (stereo not drawn) [ETHOPROPAZINE]
20mM inhibition LmjIPCS: 63%

COc1cc(C(C)=O)cc(OC)c1O [ACETOSYRINGONE]
inhibition at 20000 µM: 21%

COC(=O)[C@@H]1[C@H]2C[C@H]3c4[nH]c5ccccc5c4CCN3C[C@@H]2CC[C@@H]1O [YOHIMBINE HYDROCHLORIDE]
inhibition: 23%

O=c1[nH]cc(F)c(=O)[nH]1 [FLUOROURACIL]
inhibition: 4.66%

CC1(C)O[C@@H]2C[C@H]3[C@@H]4CCC5=CC(=O)C=C[C@]5(C)[C@@]4(F)[C@@H](O)C[C@]3(C)[C@]2(C(=O)CO)O1 [TRIAMCINOLONE ACETONIDE]
20mM inhibition LmjIPCS: 37%

CCOC(=O)[C@H](CCc1ccccc1)N[C@@H](C)C(=O)N1CCC[C@H]1C(=O)O
inhibition at 20000 µM: -20%

Cc1nc(C)c(Cl)c(O)c1Cl [CLOPIDOL]
inhibition [3]: 7%

NCCCCNCCCN [SPERMIDINE]
inhibition at 20000 µM: 12%

CN1[C@@H]2CC[C@H]1C[C@@H](OC(=O)[C@H](CO)c1ccccc1)C2 [HYOSCYAMINE]
inhibition at 20000 µM: 4%

CN(C)CCC(c1ccc(Cl)cc1)c1ccccn1 (stereo not drawn) [CHLORPHENIRAMINE]
20mM inhibition LmjIPCS: 68%

Nc1ncnc2c1ncn2[C@@H]1O[C@H](CO)[C@@H](O)[C@@H]1O [VIDARABINE]
inhibition: 10%

CO[C@@]1(NC(=O)CSCC#N)C(=O)N2C(C(=O)O)=C(CSc3nnnn3C)CS[C@@H]21 [CEFMETAZOLE]
inhibition at 20000 µM: 13%

BENZALKONIUM CHLORIDE
20mM inhibition LmjIPCS: 9%

CCOC(=O)OC(C)OC(=O)[C@@H]1N2C(=O)[C@@H](NC(=O)[C@H](N)c3ccccc3)[C@H]2SC1(C)C (stereo partly drawn) [BACAMPICILLIN]
20mM inhibition LmjIPCS: 48%

C[C@]12CC[C@@H]3c4ccc(O)cc4CC[C@H]3[C@@H]1C[C@@H](O)[C@@H]2O [ESTRIOL]
inhibition: 1.42%

NC1(C(=O)O)CC1 [AMINOCYCLOPROPANECARBOXYLIC ACID]
20mM inhibition LmjIPCS (single concentration 20mM as printed, screening of NINDS set, sheet Screen 1): 9%

CCn1cc(C(=O)O)c(=O)c2cnc(N3CCCC3)nc21 [PIROMIDIC ACID]
inhibition: 8.53%

Nc1ccc(S(=O)(=O)c2ccc(N)cc2)cc1 [DAPSONE]
inhibition: 1.23%

CC1=C(C(=O)O)N2C(=O)[C@@H](NC(=O)[C@H](N)c3ccc(O)cc3)[C@H]2SC1 [CEFADROXIL]
20mM inhibition LmjIPCS: 37%

CO/N=C(\C(=O)N[C@@H]1C(=O)N2C(C(=O)O)=C(CSc3nc(=O)c(=O)[nH]n3C)CS[C@H]12)c1csc(N)n1 [CEFTRIAXONE]
inhibition [3]: 5.34%

CC(=O)N[C@@H](CCC(=O)O)C(=O)O [ACET[…]]
inhibition at 20000 µM: -20%

COc1cc([C@@H]2c3cc4c(cc3[C@H](O)[C@H]3COC(=O)[C@H]23)OCO4)cc(OC)c1OC [PODOFILOX]
inhibition at 20000 µM: 21%

COc1cc(C(=O)NCc2ccc(OCCN(C)C)cc2)cc(OC)c1OC [TRIMETHOBENZAMIDE]
inhibition (NINDS set screen): 28%

CC[C@]12CCCN3CCc4c(n(c5ccccc45)C(=O)C1)[C@@H]32 [VINBURNINE]
20mM inhibition LmjIPCS [2]: 55%

CC12CCC3c4ccc(OCc5ccccc5)cc4CCC3C1C[C@@H](O)[C@@H]2O (stereo partly drawn) [ESTRIOL BENZYL ETHER]
20mM inhibition LmjIPCS [2]: 42%

CN(C)[C@@H]1C(O)=C(C(N)=O)C(=O)[C@@]2(O)C(O)=C3C(=O)c4c(O)ccc(Cl)c4[C@@](C)(O)[C@H]3C[C@@H]12 [CHLORTETRACYCLINE]
20mM inhibition LmjIPCS: 56%

CN(C)c1ccc(C(=C2C=CC(=[N+](C)C)C=C2)c2ccc(N(C)C)cc2)cc1 [GENTIAN VIOLET]
20mM inhibition LmjIPCS [2]: 64%

CN1CCC(=C2c3ccccc3CC(=O)c3sccc32)CC1 [KETOTIFEN]
20mM inhibition LmjIPCS: 36%

Cc1ccc(C(=O)c2ccc(CC(=O)O)n2C)cc1 [TOLMETIN]
inhibition at 20000 µM: 4%

O=C1c2ccc(O)c(O)c2C(=O)c2c(O)ccc(O)c21 [QUINALIZARIN]
inhibition (NINDS set screen): -2.7%

COc1cc2c3cc1Oc1c(OC)c(OC)cc4c1[C@@H](Cc1ccc(O)c(c1)Oc1ccc(cc1)C[C@@H]3N(C)CC2)N(C)CC4 [BERBAMINE]
inhibition at 20000 µM: 18%

Oc1ccc(O)cc1 [HYDROQUINONE]
inhibition at 20000 µM: -2.33%

Cc1cc(C)nc(NS(=O)(=O)c2ccc(N)cc2)n1 [SULFAMETHAZINE]
inhibition: 1.49%

CC(=O)O[C@]1(C(C)=O)CC[C@H]2[C@@H]3C=C(Cl)C4=CC(=O)CC[C@]4(C)[C@H]3CC[C@@]21C [CHLORMADINONE ACETATE]
inhibition at 20000 µM: 13%

O=C(O)c1cc2cc(F)ccc2[nH]1 [5-FLUOROINDOLE-2-CARBOXYLIC ACID]
20mM inhibition LmjIPCS: 51%

O=C(CCCN1CCN(c2ccccn2)CC1)c1ccc(F)cc1 [AZAPERONE]
20mM inhibition LmjIPCS: 35%

CN(C)CCOC(C)(c1ccccc1)c1ccccn1 (stereo not drawn) [DOXYLAMINE]
inhibition: 9%

CCCCN(CCCC)CCCOC(=O)c1ccc(N)cc1 [BUTACAINE]
inhibition (NINDS set screen): 19%

CCN(CC)CCNC(=O)c1cc(Cl)c(N)cc1OC [METOCLOPRAMIDE]
inhibition: 6%

NCCc1c[nH]c2ccccc12 [TRYPTAMINE]
inhibition at 20000 µM: 27%

CC[C@@]1(O)C[C@H](O)c2c(cc3c(c2O)C(=O)c2c(O)ccc(O)c2C3=O)[C@H]1C(=O)OC [RUTILANTINONE]
inhibition at 20000 µM: 27%

CC=CC(=O)N(CC)c1ccccc1C (mixture of isomers) [CROTAMITON]
inhibition at 20000 µM: 22%

c1coc(CNc2ncnc3[nH]cnc23)c1 [KINETIN]
inhibition: 16%

CC[C@H](c1ccc(O)cc1)[C@@H](CC)c1ccc(O)cc1 [HEXESTROL]
20mM inhibition LmjIPCS [2]: 34%

Nc1ccc(S(=O)(=O)NC(=O)c2ccccc2)cc1 [SULFABENZAMIDE]
inhibition (NINDS set screen): -6%

CC(=O)[C@H]1CC[C@H]2[C@@H]3C[C@H](C)C4=CC(=O)CC[C@]4(C)[C@H]3[C@@H](O)C[C@]12C [MEDRYSONE]
inhibition at 20000 µM: 14%

CNC[C@H](O)c1ccc(O)c(O)c1.O=C(O)C(O)C(O)C(=O)O [ADRENALINE BITARTRATE]
20mM inhibition LmjIPCS [1]: -5.34%

C[C@]12CCC3c4ccc(OS(=O)(=O)[O-])cc4CCC3C1CC[C@H]2O.[Na+] (stereo partly drawn) [ESTRADIOL-3-SULFATE, SODIUM SALT]
20mM inhibition LmjIPCS: 5.4%

O=c1oc2c(O)c(O)cc3c(=O)oc4c(O)c(O)cc1c4c23 [ELLAGIC ACID]
inhibition (NINDS set screen): 22%

C#C[C@]1(O)CC[C@H]2[C@@H]3CCc4cc(O)ccc4[C@H]3CC[C@@]21C [ETHINYL ESTRADIOL]
inhibition (NINDS set screen): -11%

CCCC(CCC)C(=O)O [VALPROATE SODIUM]
inhibition: 0.506%

CC(C)(Oc1ccc(CCNC(=O)c2ccc(Cl)cc2)cc1)C(=O)O [BEZAFIBRATE]
inhibition: 11%

Nc1c2ccccc2nc2ccccc12 [AMINACRINE]
inhibition at 20000 µM: -11%

CC(C)CC(NC(=O)OCC1c2ccccc2-c2ccccc21)C(=O)O (stereo in doubt)
inhibition at 20000 µM: 12%

CCC(=O)O[C@H]1[C@H](O[C@@H]2[C@@H](C)[C@H](O[C@H]3C[C@@](C)(OC)[C@@H](O)[C@H](C)O3)[C@@H](C)C(=O)O[C@H](CC)[C@@](C)(O)[C@H](O)[C@@H](C)C(=O)[C@H](C)C[C@@]2(C)O)O[C@H](C)C[C@@H]1N(C)C [ERYTHROMYCIN ESTOLATE]
inhibition (NINDS set screen): 22%

CCCCCCOc1ccccc1C(N)=O [EXALAMIDE]
inhibition [3]: 8%

O=C(O)CC[N+](=O)[O-] [BOVINOCIDIN]
20mM inhibition LmjIPCS: 21%

CC[C@@]1([C@@H]2O[C@@H]([C@H]3O[C@@](O)(CO)[C@H](C)C[C@@H]3C)C[C@@H]2C)CC[C@H]([C@]2(C)CC[C@]3(C[C@H](O)[C@@H](C)[C@@H]([C@@H](C)[C@@H](OC)[C@H](C)C(=O)O)O3)O2)O1 [MONENSIN]
inhibition at 20000 µM: 0.265%

COc1c(OC)c2occc2c2oc(=O)ccc12 [PIMPINELLIN]
inhibition (NINDS set screen): 18%

C[C@H](CCC(=O)O)[C@H]1CC[C@H]2[C@@H]3[C@@H](O)C[C@@H]4C[C@H](O)CC[C@]4(C)[C@H]3CC[C@]12C [URSODIOL]
inhibition: 8%
